The values below come from paper PMC11020070, “Discovery of Protease-Activated Receptor 4 (PAR4)-Tethered Ligand Antagonists Using Ultralarge Virtual Screening” (ACS Pharmacology & Translational Science, 2024).

This test addresses T1, GPVI receptor (Homo sapiens, UniProt Q9HCN6).
T1 construct: endogenous in cells; host or cells: washed human platelets
T1 sequence (Q9HCN6 21-339): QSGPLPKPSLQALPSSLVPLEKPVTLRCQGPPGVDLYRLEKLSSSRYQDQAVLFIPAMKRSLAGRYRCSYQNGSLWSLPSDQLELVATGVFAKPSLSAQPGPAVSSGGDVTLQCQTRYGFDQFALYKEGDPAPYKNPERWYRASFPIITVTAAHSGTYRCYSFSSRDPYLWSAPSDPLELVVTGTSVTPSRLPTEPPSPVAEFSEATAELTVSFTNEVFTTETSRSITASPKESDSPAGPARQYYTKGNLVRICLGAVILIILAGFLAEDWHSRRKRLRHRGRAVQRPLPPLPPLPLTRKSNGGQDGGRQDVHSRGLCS
T1 sequence (P30273 19-86 partner): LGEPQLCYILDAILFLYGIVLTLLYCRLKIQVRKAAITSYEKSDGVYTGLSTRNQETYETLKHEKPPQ
As to the kind of experiment: Off-target control: convulxin activation of GPVI receptor in human platelets. Type of test: cell-based. The note with it: 10 μM compound, convulxin 3.16 nM. The protocol: The hit compound (7) was tested against several platelet activators including targeting PAR1, PAR4, and GPVI collagen receptors (Figure 5). […] Taken together, the inhibition of the off-target GPVI and the divergence of the inhibition of the γ-thrombin readouts PAC1 vs P-selectin are consistent with the C5 compound not being a specific antagonist of PAR4.
Figure 5 (A) Off-target controls: % of vehicle control for γ-thrombin (100 nM), PAR4 component of α-thrombin (5 nM α-thrombin +1 μM vorapaxar), PAR4 agonist peptide 200 μM AYPGKF, 200 μM PAR1 agonist peptide SFLLRN, and GPVI agonist convulxin 3.16 nM.
Compounds were screened for inhibition activity against human PAR4 using 100 nM γ-thrombin or 200 μM PAR4-AP in a single-point assay (10 μM test compound). Dose–response curves were conducted for active compounds. Active compounds were also assessed at a single concentration of 10 μM against other agonists, including the PAR4 component of α-thrombin (5 nM α-thrombin +1 μM vorapaxar), the PAR1 agonist peptide (20 μM SFFLRN), and the GPVI receptor agonist convulxin (3 nM).

As for `Cc1nc(NC(=O)c2cc(-c3ccccc3)n(-c3ccccc3)n2)n[nH]1` [Compound 7], the “inhibition of convulxin activation of GPVI receptor” value is “did not inhibit”.
